The values below come from US20230391821A1, “METHODS FOR TARGET RELEASE FROM INTEIN COMPLEXES” (MERCK PATENT GMBH, priority 2020, published 2023).

Experiment [1] deals with intein complex of intein-C tagged hEPO (19 kDa) and intein-N ligand R46-358132. Nature of the experiment: Example 6: intein cleavage at pH 7, highly glycosylated target hEPO. The format is biochemical, human. Conditions: versus Cleavage B.1.
For experiment [2], the system named is intein complex of intein-C tagged S1-RBD (26 kDa) and intein-N ligand R49-358132. Nature of the experiment: Example 6: intein cleavage at pH 7, highly glycosylated target S1-RBD. The format is biochemical, SARS-CoV-2. Conditions: versus Cleavage B.1.
For experiment [3], the system named is intein complex of 13 kDa intein-C tagged target (Thioredoxin) and intein-N ligand R44-358132. In words: Example 2-1: intein cleavage / tagless target release on intein-N column, Cleavage Buffer pH 7 with additives. It is filed as biochemical, Escherichia coli (strain K12). Conditions: 13 kDa target, versus Cleavage B.1.
The test system of experiment [4] is intein complex of 13 kDa intein-C tagged target and intein-N ligand R46-358132. In words: Example 4: intein cleavage with 10 min residence time during elution, with and without pH shift. It is filed as biochemical. As to the method: The intein-N resin prototype column, carrying a third generation of intein-N ligand (R46-358132) was used for five intein purifications. The improvement of intein cleavage through additives such as imidazole (Examples 2, 3) was studied under longer residence times, with and without introducing a pH shift during the elution phase.
One reference run (cycle 1) was accomplished as a reference run for that study, using 5 minutes residence time during the whole purification process (0.2 ml/min flow rate). Further, the intein-N resin prototype column was used in additional four consecutive cycles (cycles 2-5) where a combinatorial method flow rate was given. […]
Depending on the used buffer system during the elution phase, the amount of eluted tagless 13 kDa target was about 0.40-0.91 mg. […] The total intein-C bound protein was calculated using the eluted target and the remaining intein-C target, that was released during the cleaning phase together with the remained intein-C fragments. The amount of eluted target during elution step 1 and step 2 was calculated for all five cycles using the A280-Absorbance and the molecular extinction coefficient of the cleaved target.
The yield of tagless released target during the elution phase was calculated per total bound amount of intein-C target. […]

Experiment [5] concerns intein complex of 13 kDa intein-C tagged target and intein-N ligand R44-358132. In words: Example 3: intein cleavage under capture conditions (pH 9), no pH shift. Conditions: 13 kDa target, versus Capture A.1. The format is biochemical. As to the method:
A 13 kDa intein-C tagged target was pre-purified using Strep-II Tag purification as described in example 1 and was diluted to a concentration of 1 mg/mL. The intein-N resin prototype column was equilibrated with 10 CV Capture Buffer (100 mM Tris, 200 mM NaCl, pH 9). The pre-purified intein-C target was loaded with 5 CV to the prototype column under capture conditions (100 mM Tris, 200 mM NaCl, pH 9). The impurities were washed out with 10 CV Capture Buffer (100 mM Tris, 200 mM NaCl, pH 9). The Capture Buffer designated A.1 (100 mM Tris, 200 mM NaCl, pH 9) was used as a reference in this setup. […]
The two different Capture Buffers A.1 and A.2 were used in two consecutive purification cycles. The A280-Absorbance chromatograms were recorded and analyzed to determine the amount of protein recovered from the elution and the CIP phase.
The amount of eluted target recovered from the elution step 1 and elution step 2 were determined using the A280-Absorbance and the molecular extinction coefficient of the cleaved target. The total bound amount of intein-C tagged protein was calculated using the eluted target, and the remaining intein-C target, that was released during the cleaning phase together with the remained intein-C fragments. The yield of tagless released target during the elution phase was calculated per total bound intein-C target. […]

With `c1c[nH]cn1` [imidazole], the entries for the “% improvement in yield (total)” value in experiment [1] and in experiment [2] were 12.22% and 1.95%, respectively. In addition, the “% improvement in yield (E1)” value in experiment [3] is listed as “up to 11.15%”; in experiment [4] (cycle 3 (B.2) versus cycle 1 (B.1, 0.2 ml/min), cycle 5 (A.2) versus cycle 4 (A.1)), 12.51%; in experiment [5] it was 15.15%. Besides, the “elution amount in A280 chromatogram compared with buffer without additive” value in experiment [4] (13 kDa target, elution 1 and 2, FIG. 9) is given as “higher elution amount”.
